Experimental data taken from PubChem BioAssay (NCI).
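Cultured in 96-well plates, cells were exposed to test compound for 48 hours across five concentrations. The concentration for full growth arrest is given as TGI.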

How the values were obtained:
Test in all cases: NCI-60 cell line screen, 48 h
SN12C renal = test system: SN12C renal
HOP-92 NSCLC = test system: HOP-92 NSCLC
SF-539 CNS = test system: SF-539 CNS
786-0 renal = test system: 786-0 renal
ACHN renal = test system: ACHN renal
MCF7 breast = test system: MCF7 breast
KM12 colon = test system: KM12 colon
NCI-H23 lung = test system: NCI-H23 lung
LOX IMVI melanoma = test system: LOX IMVI melanoma
HT29 colon = test system: HT29 colon
A498 renal = test system: A498 renal
SK-MEL-5 melanoma = test system: SK-MEL-5 melanoma
M14 melanoma = test system: M14 melanoma
K-562 leukemia = test system: K-562 leukemia

Measured: TGI

CC(=O)OCC1OC(n2nc(Cc3ccccc3)c(=S)[nH]c2=S)C(OC(C)=O)C(OC(C)=O)C1OC(C)=O (configuration not stated)
40.6 µM: HOP-92 NSCLC
> 100 µM: 786-0 renal | ACHN renal | HT29 colon | A498 renal | SK-MEL-5 melanoma | K-562 leukemia
55.3 µM: SN12C renal
38.1 µM: M14 melanoma
72.7 µM: MCF7 breast
44.6 µM: NCI-H23 lung
40.2 µM: KM12 colon
41.9 µM: LOX IMVI melanoma
67.8 µM: SF-539 CNS

c1ccc([P+](CCCCCC[P+](c2ccccc2)(c2ccccc2)c2ccccc2)(c2ccccc2)c2ccccc2)cc1
39 µM: SF-539 CNS
> 100 µM: SN12C renal | 786-0 renal | ACHN renal | HT29 colon | A498 renal | M14 melanoma | K-562 leukemia
38.6 µM: LOX IMVI melanoma
63.2 µM: KM12 colon
69.6 µM: NCI-H23 lung
74.1 µM: MCF7 breast
66.7 µM: HOP-92 NSCLC

Nc1nc(=S)n(-c2ccc(Cl)cc2)c2nc3ccccc3cc12
> 100 µM: SN12C renal | 786-0 renal | ACHN renal | MCF7 breast | KM12 colon | NCI-H23 lung | LOX IMVI melanoma | HT29 colon | A498 renal | SK-MEL-5 melanoma | M14 melanoma | K-562 leukemia
83.7 µM: HOP-92 NSCLC

[N-]=[N+]=CC(=O)CCC(=O)N(c1ccccc1)c1ccccc1
> 10 µM: SN12C renal | HOP-92 NSCLC | SF-539 CNS | 786-0 renal | ACHN renal | MCF7 breast | KM12 colon | NCI-H23 lung | LOX IMVI melanoma | HT29 colon | A498 renal | SK-MEL-5 melanoma | M14 melanoma | K-562 leukemia

CC1=C2C3OC(=O)C(C)C3CCC2(C)C=CC1=Nc1ccccc1 (configuration not stated)
> 100 µM: SN12C renal | HOP-92 NSCLC | SF-539 CNS | MCF7 breast | KM12 colon | NCI-H23 lung | LOX IMVI melanoma | HT29 colon | A498 renal | SK-MEL-5 melanoma | K-562 leukemia

CC1=CCC2CC1NC(=O)CCOCCC(=O)NC2(C)C (configuration not stated)
> 100 µM: SN12C renal | HOP-92 NSCLC | SF-539 CNS | 786-0 renal | ACHN renal | MCF7 breast | KM12 colon | NCI-H23 lung | LOX IMVI melanoma | HT29 colon | A498 renal | SK-MEL-5 melanoma | M14 melanoma | K-562 leukemia

COc1cc(C2c3c(ccc4ccccc34)C(=O)C3CCC(=O)N32)cc(OC)c1O (configuration not stated)
> 25 µM: SN12C renal | HOP-92 NSCLC | SF-539 CNS | 786-0 renal | ACHN renal | MCF7 breast | KM12 colon | NCI-H23 lung | HT29 colon | A498 renal | M14 melanoma | K-562 leukemia

COc1cc2c[n+](C)c3c(c2cc1OC)Cc1cc2c(cc1-3)OCO2
> 100 µM: SN12C renal | HOP-92 NSCLC | SF-539 CNS | 786-0 renal | MCF7 breast | KM12 colon | NCI-H23 lung | LOX IMVI melanoma | HT29 colon | A498 renal | SK-MEL-5 melanoma | M14 melanoma | K-562 leukemia

COc1cc(/C=N/NC2=NCCCCN2)ccc1O
> 100 µM: SN12C renal | HOP-92 NSCLC | SF-539 CNS | 786-0 renal | ACHN renal | MCF7 breast | KM12 colon | NCI-H23 lung | LOX IMVI melanoma | HT29 colon | A498 renal | SK-MEL-5 melanoma | M14 melanoma | K-562 leukemia

COc1cccc(-c2c(-c3ccccc3)[nH]c(C)c2C(=O)ONC(=O)c2ccccc2)c1
28.5 µM: A498 renal
18.4 µM: SF-539 CNS
15.5 µM: 786-0 renal
25.9 µM: NCI-H23 lung
23.9 µM: SK-MEL-5 melanoma
12.8 µM: SN12C renal
20 µM: M14 melanoma
4.65 µM: HOP-92 NSCLC
32.4 µM: KM12 colon
> 45.2 µM: HT29 colon
3.91 µM: LOX IMVI melanoma
24 µM: MCF7 breast
10.4 µM: K-562 leukemia
10.9 µM: ACHN renal

CCCCc1ccc(C#CC#Cc2ccc(CCCC)s2)s1
> 100 µM: SN12C renal | HOP-92 NSCLC | SF-539 CNS | 786-0 renal | ACHN renal | MCF7 breast | KM12 colon | NCI-H23 lung | HT29 colon | A498 renal | SK-MEL-5 melanoma | M14 melanoma

Cn1c(=O)c(Cl)c(N=[N+]=[N-])c2ccccc21
> 100 µM: SN12C renal | HOP-92 NSCLC | SF-539 CNS | ACHN renal | MCF7 breast | KM12 colon | NCI-H23 lung | LOX IMVI melanoma | HT29 colon | A498 renal | SK-MEL-5 melanoma | K-562 leukemia

COC1/C=C/C(C)C(C(C)C(OC)C(C)CCC(=O)C(C)C(CC(=O)O)OC)OC(=O)/C=C/C=C(\C)CC(OC)CC2=CC(=O)O[C@H](C2)C(C)C(OC)CC(OC)/C=C/C(C)C(OC)C1 (some centres not stated)
1.32 µM: HOP-92 NSCLC
> 4.35 µM: SN12C renal | 786-0 renal | ACHN renal | MCF7 breast | KM12 colon | NCI-H23 lung | HT29 colon | SK-MEL-5 melanoma | M14 melanoma | K-562 leukemia
2.17 µM: A498 renal

C/C(Cc1ccc2c(c1)OCO2)=N\NC(=O)C(C)Sc1nnc(SC(C)C(=O)N/N=C(\C)Cc2ccc3c(c2)OCO3)s1 (configuration not stated)
> 100 µM: HOP-92 NSCLC | 786-0 renal | ACHN renal | MCF7 breast | KM12 colon | NCI-H23 lung | LOX IMVI melanoma | HT29 colon | A498 renal | SK-MEL-5 melanoma | M14 melanoma | K-562 leukemia

CC(O)[C@@]1(c2ccccc2)CC2(CCN(C)CC2)O[C@H]1C (some centres not stated)
> 100 µM: HOP-92 NSCLC | SF-539 CNS | 786-0 renal | ACHN renal | MCF7 breast | KM12 colon | NCI-H23 lung | LOX IMVI melanoma | HT29 colon | A498 renal | SK-MEL-5 melanoma | M14 melanoma | K-562 leukemia

CN(C(=O)c1ccc(OCCCC(=O)O)c(Cl)c1Cl)C1CCCC1
> 100 µM: SN12C renal | HOP-92 NSCLC | SF-539 CNS | MCF7 breast | KM12 colon | NCI-H23 lung | LOX IMVI melanoma | HT29 colon | A498 renal | SK-MEL-5 melanoma | K-562 leukemia

COC(=O)/C(C#N)=C(\N)c1c(C)c2ccccc2oc1=N
> 100 µM: SN12C renal | HOP-92 NSCLC | SF-539 CNS | 786-0 renal | MCF7 breast | KM12 colon | LOX IMVI melanoma | A498 renal | SK-MEL-5 melanoma | K-562 leukemia

C=CC1(C)OC2(CCN(C(=O)OCC)CC2)OC1C (configuration not stated)
> 100 µM: HOP-92 NSCLC | SF-539 CNS | 786-0 renal | ACHN renal | MCF7 breast | KM12 colon | NCI-H23 lung | LOX IMVI melanoma | HT29 colon | A498 renal | SK-MEL-5 melanoma | M14 melanoma | K-562 leukemia
